From PMC7615656 (European journal of pharmacology, 2010)

Columns and labels:
[1] = biological target: recombinant rat α1β3γ2 receptors (Rattus norvegicus, UniProt P18508+P62813); test: Two-electrode voltage clamp of GABA-induced chloride currents in Xenopus oocytes; format: cell-based; conditions: for efficacy (% GABA EC3): ns = not significant
α1β3 receptors = α1β3 receptors (Rattus norvegicus, UniProt P62813+P63079); test: Zn2+ reduction of GABA-induced chloride flux; format: cell-based; conditions: 10 μM Zn2+, means ± SEM, n=4
Sequence of α1β3 receptors (P62813 28-455): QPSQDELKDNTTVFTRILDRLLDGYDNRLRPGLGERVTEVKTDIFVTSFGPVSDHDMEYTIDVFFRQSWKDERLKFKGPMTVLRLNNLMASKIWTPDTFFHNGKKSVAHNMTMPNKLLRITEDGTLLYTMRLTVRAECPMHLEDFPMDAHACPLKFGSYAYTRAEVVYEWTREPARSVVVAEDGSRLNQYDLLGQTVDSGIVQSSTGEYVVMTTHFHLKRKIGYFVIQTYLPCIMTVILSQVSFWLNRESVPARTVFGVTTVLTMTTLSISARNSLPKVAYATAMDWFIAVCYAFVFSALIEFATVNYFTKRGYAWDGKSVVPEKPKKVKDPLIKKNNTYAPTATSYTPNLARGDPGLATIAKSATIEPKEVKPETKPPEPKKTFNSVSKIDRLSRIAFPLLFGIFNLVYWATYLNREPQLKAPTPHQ
Sequence of α1β3 receptors (P63079 26-473): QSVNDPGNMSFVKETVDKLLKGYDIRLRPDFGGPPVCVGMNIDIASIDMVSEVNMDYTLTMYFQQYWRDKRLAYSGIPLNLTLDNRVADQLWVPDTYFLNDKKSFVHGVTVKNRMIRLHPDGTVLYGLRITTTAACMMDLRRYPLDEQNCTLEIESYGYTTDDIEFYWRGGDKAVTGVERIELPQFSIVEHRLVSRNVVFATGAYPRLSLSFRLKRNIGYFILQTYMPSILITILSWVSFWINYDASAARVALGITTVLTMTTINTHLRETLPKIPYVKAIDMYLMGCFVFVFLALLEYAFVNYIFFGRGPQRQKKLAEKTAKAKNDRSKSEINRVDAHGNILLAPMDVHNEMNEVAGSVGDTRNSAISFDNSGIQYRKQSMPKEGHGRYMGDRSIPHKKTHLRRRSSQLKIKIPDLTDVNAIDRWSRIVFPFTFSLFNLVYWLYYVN

[2] = biological target: recombinant rat α1β3γ2F77I receptors (Rattus norvegicus, UniProt P18508+P62813, F115I); test: Two-electrode voltage clamp of GABA-induced chloride currents in Xenopus oocytes; format: cell-based; conditions: α1β3γ2F77I; for efficacy (% GABA EC3): ns = not significant
[3] = biological target: recombinant rat α3β3γ2F77I receptors (Rattus norvegicus, UniProt P18508+P20236, F115I); test: as above; format: cell-based; conditions: α3β3γ2F77I, ns = not significant
[4] = biological target: recombinant rat α2β3γ2 receptors (Rattus norvegicus, UniProt P18508+P23576); test: as above; format: cell-based; conditions: for efficacy (% GABA EC3): α2β3γ2, ns = not significant
Sequence of recombinant rat α2β3γ2 receptors (P23576 29-451): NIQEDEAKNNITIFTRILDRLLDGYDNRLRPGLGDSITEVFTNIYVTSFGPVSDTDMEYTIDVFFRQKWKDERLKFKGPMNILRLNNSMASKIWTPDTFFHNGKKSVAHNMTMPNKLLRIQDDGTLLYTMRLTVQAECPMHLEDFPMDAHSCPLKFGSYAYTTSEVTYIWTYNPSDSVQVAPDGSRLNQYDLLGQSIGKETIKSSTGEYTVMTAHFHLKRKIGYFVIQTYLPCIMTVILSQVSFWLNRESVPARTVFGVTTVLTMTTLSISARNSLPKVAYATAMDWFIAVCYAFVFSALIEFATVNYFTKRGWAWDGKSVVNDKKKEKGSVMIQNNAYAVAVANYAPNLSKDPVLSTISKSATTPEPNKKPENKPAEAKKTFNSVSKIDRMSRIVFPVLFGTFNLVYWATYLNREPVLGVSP
Sequence of recombinant rat α2β3γ2 receptors (P63079 26-473 partner): as the sequence (P63079 26-473) above
Sequence of recombinant rat α2β3γ2 receptors (P18508 39-466): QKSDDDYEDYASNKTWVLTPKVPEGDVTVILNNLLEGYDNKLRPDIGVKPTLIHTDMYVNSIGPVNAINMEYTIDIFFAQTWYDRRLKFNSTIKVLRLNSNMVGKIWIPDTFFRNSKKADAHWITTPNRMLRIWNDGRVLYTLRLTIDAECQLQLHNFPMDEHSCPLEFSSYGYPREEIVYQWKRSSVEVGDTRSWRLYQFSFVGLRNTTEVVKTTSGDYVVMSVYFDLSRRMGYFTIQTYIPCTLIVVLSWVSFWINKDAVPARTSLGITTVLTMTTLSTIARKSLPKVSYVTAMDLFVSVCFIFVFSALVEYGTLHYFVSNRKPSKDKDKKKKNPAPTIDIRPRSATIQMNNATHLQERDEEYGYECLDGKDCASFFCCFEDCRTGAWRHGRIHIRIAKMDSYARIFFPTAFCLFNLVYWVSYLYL

[5] = biological target: recombinant rat α5β3γ2 receptors (Rattus norvegicus, UniProt P18508+P19969); test: as above; format: cell-based; conditions: for efficacy (% GABA EC3): α5β3γ2, ns = not significant
[6] = biological target: recombinant rat α2β3γ2F77I receptors (Rattus norvegicus, UniProt P18508+P23576, F115I); test: as above; format: cell-based; conditions: α2β3γ2F77I, ns = not significant
Sequence of recombinant rat α2β3γ2F77I receptors (P23576 29-451): as the sequence (P23576 29-451) above
Sequence of recombinant rat α2β3γ2F77I receptors (P63079 26-473 partner): as the sequence (P63079 26-473) above
Sequence of recombinant rat α2β3γ2F77I receptors (P18508 39-466 F115I): as the sequence (P18508 39-466) above, with F77I counted along it

[7] = biological target: recombinant rat α3β3γ2 receptors (Rattus norvegicus, UniProt P18508+P20236); test: as above; format: cell-based; conditions: for efficacy (% GABA EC3): α3β3γ2, ns = not significant
[8] = test system: GABAA receptors of mice containing the point mutation γ2F77I; conditions: receptor binding; ref Ogris et al., 2004; cited from earlier work
[9] = biological target: recombinant rat α5β3γ2F77I receptors (Rattus norvegicus, UniProt P18508+P19969, F115I); test: Two-electrode voltage clamp of GABA-induced chloride currents in Xenopus oocytes; format: cell-based; conditions: α5β3γ2F77I, ns = not significant
Sequence of recombinant rat α5β3γ2F77I receptors (P19969 32-464 limits assumed): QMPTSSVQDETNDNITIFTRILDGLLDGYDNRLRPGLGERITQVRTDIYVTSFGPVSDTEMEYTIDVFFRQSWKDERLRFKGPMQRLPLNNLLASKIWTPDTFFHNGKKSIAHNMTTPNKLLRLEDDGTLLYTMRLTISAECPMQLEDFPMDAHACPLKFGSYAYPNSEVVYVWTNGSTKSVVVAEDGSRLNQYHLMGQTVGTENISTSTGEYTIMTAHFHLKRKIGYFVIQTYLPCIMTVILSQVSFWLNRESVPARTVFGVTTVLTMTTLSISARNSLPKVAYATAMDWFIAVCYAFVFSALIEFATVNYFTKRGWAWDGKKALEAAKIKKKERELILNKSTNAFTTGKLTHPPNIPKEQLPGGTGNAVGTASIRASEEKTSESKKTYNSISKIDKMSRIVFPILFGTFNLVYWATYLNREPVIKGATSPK
Sequence of recombinant rat α5β3γ2F77I receptors (P63079 26-473 partner): as the sequence (P63079 26-473) above
Sequence of recombinant rat α5β3γ2F77I receptors (P18508 39-466 F115I): as the sequence (P18508 39-466) above, with F77I counted along it

[10] = test system: GABAA receptors containing the γ2F77I mutation; test: Modulation of GABA EC3 in receptors containing the γ2F77I mutation; format: cell-based, rat; conditions: 10 μM; some γ2F77I receptors
[11] = biological target: recombinant rat α6β3γ2 receptors (Rattus norvegicus, UniProt P18508+P30191); test: Two-electrode voltage clamp of GABA-induced chloride currents in Xenopus oocytes; format: cell-based; conditions: α6β3γ2, ns = not significant
[12] = biological target: recombinant rat α4β3γ2 receptors (Rattus norvegicus, UniProt P18508+P28471); test: as above; format: cell-based; conditions: α4β3γ2, ns = not significant

SMILES: [Zn+2] [Zn^2+]
- GABA-induced chloride flux reduced to ([1]; 10 μM Zn2+, α1β3γ2, means ± SEM, n=4): 70.3 ± 3%
- GABA-induced chloride flux reduced to (α1β3 receptors): 5.5 ± 1%
- GABA-induced chloride flux reduced to ([2]; 10 μM Zn2+, means ± SEM, n=4): 75.4 ± 3%

SMILES: CN1CCN(C(=O)OC2c3nccnc3C(=O)N2c2ccc(Cl)cn2)CC1 (stereo not drawn) [Zopiclone, 4-methyl-1-piperazinecarboxylic acid-6-(5-chloro-2-pyridinyl)-6,7-dihydro-7-oxo-5H-pyrrolo[3,4-b]pyrazin-5-yl ester]
- EC50 [1]: 163 ± 19 nM
- efficacy (% GABA EC3) ([1]; 100 nM, α1β3γ2): 211 ± 17 % GABA EC3
- efficacy (% GABA EC3) ([1]; 1 μM, α1β3γ2): 347 ± 35 % GABA EC3
- efficacy (% GABA EC3) ([1]; 10 μM, α1β3γ2): 383 ± 36 % GABA EC3
- efficacy (% GABA EC3) ([3]; 100 nM): ns
- efficacy (% GABA EC3) ([3]; 1 μM): 107 ± 1 % GABA EC3
- efficacy (% GABA EC3) ([3]; 10 μM): 119 ± 4 % GABA EC3
- EC50 [4]: 400 ± 64 nM
- efficacy (% GABA EC3) ([4]; 100 nM): 157 ± 9 % GABA EC3
- efficacy (% GABA EC3) ([4]; 1 μM): 289 ± 16 % GABA EC3
- efficacy (% GABA EC3) ([4]; 10 μM): 356 ± 22 % GABA EC3
- EC50 [5]: 176 ± 1 nM
- efficacy (% GABA EC3) ([5]; 100 nM): 191 ± 8 % GABA EC3
- efficacy (% GABA EC3) ([5]; 1 μM): 313 ± 18 % GABA EC3
- efficacy (% GABA EC3) ([5]; 10 μM): 345 ± 22 % GABA EC3
- efficacy (% GABA EC3) ([6]; 100 nM): ns
- efficacy (% GABA EC3) ([6]; 1 μM): ns
- efficacy (% GABA EC3) ([6]; 10 μM): 121 ± 2 % GABA EC3
- EC50 [7]: > 793 nM
- efficacy (% GABA EC3) ([7]; 100 nM): 161 ± 10 % GABA EC3
- efficacy (% GABA EC3) ([7]; 1 μM): 377 ± 24 % GABA EC3
- efficacy (% GABA EC3) ([7]; 10 μM): 559 ± 30 % GABA EC3
- shift in affinity caused by γ2F77I [8]: ~100 fold
- efficacy (% GABA EC3) ([9]; 100 nM): ns
- efficacy (% GABA EC3) ([9]; 1 μM): 114 ± 2 % GABA EC3
- efficacy (% GABA EC3) ([9]; 10 μM): 144 ± 1 % GABA EC3
- stimulation of GABA-induced chloride flux [10]: 20–40%
- efficacy (% GABA EC3) ([11]; 1 μM): ns
- efficacy (% GABA EC3) ([11]; 10 μM): ns
- efficacy (% GABA EC3) ([11]; 10 μM, listed as zopiclone): did not significantly stimulate
- efficacy (% GABA EC3) ([12]; 1 μM): ns
- efficacy (% GABA EC3) ([12]; 10 μM): ns
- efficacy (% GABA EC3) ([12]; 10 μM, listed as zopiclone): did not significantly stimulate
- efficacy (% GABA EC3) ([2]; 100 nM): ns
- efficacy (% GABA EC3) ([2]; 1 μM): ns
- efficacy (% GABA EC3) ([2]; 10 μM): 125 ± 3 % GABA EC3
